Reference: publication PMC6274786 (International Journal of Molecular Sciences, 2018)
Entries after “also recorded” stand apart in the source; their conditions may differ. Like-named read-outs stand apart in the source and are kept apart here.

Experiments:
Hepatoma HepG2 cell line = assay: Antiproliferative assay (MTS), HepG2; assay type: cell-based; conditions: 72 h incubation
Procedure: (§1) Human embryonic kidney (HEK)-293 cell line (ATCC CRL-1573) was kindly donated by Prof. Dr. […] (Pharmaceutical Institute, Pharmaceutical Chemistry I, University of Bonn). Hepatoma HepG2 (ATCC HB-8065) cell line was kindly donated by the Department of Pharmacological Screening, Jagiellonian University Medical College. The cell cultures' growth conditions in presence of H3R antagonist 4 were applied as described before. The cells' viability was assessed after 72 h of incubation with H3R antagonist and the following references: doxorubicin (Sigma-Aldrich) and carbonyl cyanide 3-chlorophenylhydrazone (CCCP) (Sigma-Aldrich). CellTiter 96® AQueous non-radioactive cell proliferation assay (MTS) was purchased from Promega® and added to each well in the volume of 20 μL. The cells were then incubated for 2-5 h. The microplate reader EnSpire (PerkinElmer Ltd., Waltham, MA, USA) was used to measure the absorbance at 490 nm.

human H1 receptor = biological target: T1, human H1 receptor (Homo sapiens, UniProt P35367); assay: Radioligand binding, membranes from CHO-K1 cells; conditions: for fold lower affinity at hH1- and H4Rs than at H3R: selectivity toward H3Rs
T1 construct: purchased PerkinElmer; host or cells: CHO-K1 cells, stably transfected (membranes)
T1 sequence (P35367 whole entry): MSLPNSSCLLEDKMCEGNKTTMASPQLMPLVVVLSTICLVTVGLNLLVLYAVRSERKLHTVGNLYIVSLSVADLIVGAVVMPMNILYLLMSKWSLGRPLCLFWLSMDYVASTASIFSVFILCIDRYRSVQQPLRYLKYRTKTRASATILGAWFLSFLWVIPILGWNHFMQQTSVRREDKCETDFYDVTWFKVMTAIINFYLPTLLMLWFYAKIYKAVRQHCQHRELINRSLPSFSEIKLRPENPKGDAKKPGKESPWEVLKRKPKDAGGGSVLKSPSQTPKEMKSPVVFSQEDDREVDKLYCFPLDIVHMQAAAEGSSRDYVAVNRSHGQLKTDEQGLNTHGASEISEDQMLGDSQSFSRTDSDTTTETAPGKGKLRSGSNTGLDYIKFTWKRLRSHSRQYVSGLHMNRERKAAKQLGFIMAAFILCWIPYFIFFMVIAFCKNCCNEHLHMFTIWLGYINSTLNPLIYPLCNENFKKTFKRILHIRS
Procedure: Radioligand binding was performed as previously described using membranes from CHO-K1 cells stably transfected with the human H1 receptor (PerkinElmer., Waltham, MA, USA). Data were fitted to a one-site curve-fitting equation with Prism 6 (GraphPad Software, city, state, country) and Ki values were estimated from the Cheng–Prusoff equation [44].

hH4R = biological target: T2, hH4R (Homo sapiens, UniProt Q9H3N8); assay: H4R radioligand displacement assay, Sf9 cell membrane preparations; assay type: binding
T2 construct: expressed in transfected cells; host or cells: Sf9 insect cells (membrane preparations)
T2 sequence (Q9H3N8 whole entry): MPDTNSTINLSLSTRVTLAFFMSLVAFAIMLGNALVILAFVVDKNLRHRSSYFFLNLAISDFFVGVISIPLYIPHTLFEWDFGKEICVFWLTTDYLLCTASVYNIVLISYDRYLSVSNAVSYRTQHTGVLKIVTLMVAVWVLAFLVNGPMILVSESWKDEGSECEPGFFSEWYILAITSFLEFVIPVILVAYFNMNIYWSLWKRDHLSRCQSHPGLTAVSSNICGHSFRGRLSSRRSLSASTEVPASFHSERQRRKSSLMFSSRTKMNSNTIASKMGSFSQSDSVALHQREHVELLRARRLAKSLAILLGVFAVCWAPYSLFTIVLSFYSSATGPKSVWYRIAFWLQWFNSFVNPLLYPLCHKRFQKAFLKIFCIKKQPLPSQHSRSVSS
Procedure: H4R radioligand displacement assays were performed with Sf9 cell membrane preparations, expressing the hH4R, as described previously. Assays ran in triplicates with four appropriate concentrations of the test compound. Data were analyzed by GraphPad Prism 7, using the “one-site competition” equation.

MES-induced seizure = assay: Maximal electroshock (MES)-induced seizure; assay type: in vivo, Wistar rats; conditions: for protective effect in MES-induced seizure (in words): vs saline-treated group; for MES-Induced Seizure (protection class): 50 Hz, 120 mA, 1 s
Text: As previously described, the seizures were induced in rats with a 50 Hz alternating current of 120 mA intensity. The current was applied through ear electrodes for 1 s. Protection against the spread of MES-induced seizure was defined as the abolition of the tonic hind limb extension (THLE) component of the seizure. For the first screening of protective effects of test compounds 1–16 in the MES-induced seizure model, the animals were divided into eighteen groups of seven rats (n = 7) as follows; group (1) control group injected with vehicle (SAL), group (2) positive control group in which rats were injected with PHT at a dose of 10 mg/kg (this being the minimal dose of PHT that protected animals against the spread of MES-induced seizures without mortality), and groups (3)–(18) animals in the experimental groups were administered H3R antagonists 1–16 at a dose of 10 mg/kg. In another MES experiment in three separate groups of six rats (n = 6), H3R antagonist 4 with the most promising protection in MES model was administered at doses of 2.5, 5, or 15 mg/kg, i.p. 30–45 min before the MES challenge.

PTZ-induced seizure = assay: Pentylenetetrazole (PTZ)-induced seizure; assay type: in vivo, Wistar rats; conditions: for protective effect in PTZ-induced seizure (in words): observed over 30 min, vs saline-treated group; for PTZ-Induced Seizure (protection class): PTZ 60 mg/kg
Procedure: (§2) In this study and according to previously used protocols, two chemical agents have been used to induce seizures, namely pentylenetetrazole (PTZ, 60 mg/kg, i.p.) and strychnine (STR, 3.5 mg/kg, i.p.). PTZ 60 mg/kg or STR 3.5 mg/kg were administered i.p. to all groups of seven rats (n = 7), that is, animals pretreated with vehicle or test compounds 1–16. Vehicle, VPA (300 mg/kg, i.p.), [26, 47, 48, 49] or test compounds 1–16 (10 mg/kg, i.p.) were systemically administered 30–45 min before PTZ (60 mg/kg, i.p.) or STR (3.5 mg/kg, i.p.) injection, and animals were directly observed for any signs of convulsion for a duration of 30 min. The observed scores as well as percent protection against generalized tonic-clonic seizure (GTCS) were graded and scaled according to the Racine scale (stage 0, no change in behavior; stage 1, stereotype mouthing, eye blinking, and/or mild facial clonus; stage 2, head nodding and/or severe facial clonus; stage 3, myoclonic jerk in forelimbs; stage 4, clonic convulsions in the forelimbs with rearing; stage 5, generalized colonic convulsions associated with loss of balance) to evaluate the protection provided by the respective test compound against seizures. The animals were divided into eighteen groups of seven rats (n = 7) and treated as follows.
(§3) (1) Control group injected with vehicle + PTZ (SAL group), (2) positive control group in which rats were injected with VPA (300 mg/kg) + PTZ (VPA group), and animals in the test groups (3)–(18) were systemically administered with test compounds 1–16 (10 mg/kg), respectively. An additional PTZ experiment was conducted using three different groups of seven rats (n = 7), the H3R ligand with the most promising protection in PTZ model was administered at doses of 2.5, 5, or 15 mg/kg, i.p. 30–45 min before the PTZ challenge. […] The same experimental procedure was followed in the STR-induced seizure model applying the reference drug VPA, which was used at a dose of 300 mg/kg, i.p. (Figure 3, Table 2).

STR-induced seizure = assay: Strychnine (STR)-induced seizure; assay type: in vivo, Wistar rats; conditions: for protective effect in STR-induced seizure (in words): 30 min observation, vs saline-treated group; for STR-Induced Seizure (protection class): STR 3.5 mg/kg
Procedure: as §2, §3

[1] = Metabolic stability in rat liver microsomes; assay type: in vitro ADME; conditions: RLMs, MS ion fragment analysis, metabolite M-I
Procedure: Rat liver microsomes (RLMs) purchased form Sigma-Aldrich (St. Louis, MO, USA) were used for in vitro determination of compound 4’s metabolic stability. The NADPH regeneration system was purchased from Promega (Madison, WI, USA). All experiments were performed as described before. The reaction mixture was preincubated at 37 °C for 5 min, and then the reaction was started by adding 50 µL of NADPH regeneration system. The reaction was ended after 120 min by the addition of cold methanol (200 µL). The mixture was then centrifuged at 14,000 rpm for 15 min and the ultra-performance liquid chromatography–mass spectrometry (UPLC/MS) analysis of the supernatant was conducted. Ion fragment analyses were also performed for metabolic pathways’ determination.

CYP2D6 = CYP2D6 (Homo sapiens, UniProt P10635); assay: Luminescent CYP2D6 P450-Glo assay
Chain of CYP2D6 (P10635 whole entry): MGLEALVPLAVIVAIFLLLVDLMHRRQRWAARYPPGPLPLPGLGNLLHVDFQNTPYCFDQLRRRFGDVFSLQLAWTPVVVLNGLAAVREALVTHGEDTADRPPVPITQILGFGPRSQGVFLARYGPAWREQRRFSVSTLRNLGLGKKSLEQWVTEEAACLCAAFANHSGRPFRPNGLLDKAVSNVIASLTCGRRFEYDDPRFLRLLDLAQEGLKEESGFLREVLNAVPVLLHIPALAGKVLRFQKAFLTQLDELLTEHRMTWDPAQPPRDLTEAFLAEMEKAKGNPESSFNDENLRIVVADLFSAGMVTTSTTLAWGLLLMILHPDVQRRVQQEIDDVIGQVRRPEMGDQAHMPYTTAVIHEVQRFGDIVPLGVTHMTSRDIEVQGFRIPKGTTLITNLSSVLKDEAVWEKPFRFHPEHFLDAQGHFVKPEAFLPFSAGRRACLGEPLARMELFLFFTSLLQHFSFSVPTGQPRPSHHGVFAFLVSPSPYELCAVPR
Procedure: The metabolic interactions of H3R antagonist 4 were determined by the luminescent P450-Glo™ 3A4 and 2D6 assays purchased from Promega®. All enzymatic reactions were performed according to the manufacturer protocols and as previously described. […] The luminescence was measured with a microplate reader EnSpire (PerkinElmer). The final concentration of H3R antagonist 4 was in the range of 0.1–25 µM, whereas reference inhibitory effects ranged from 0.01 µM to 10 µM. The IC50 values’ calculations were performed by GraphPad Prism™ software (version 5.01, San Diego, CA, USA).

human histamine H3R = biological target: T3, human histamine H3R (Homo sapiens, UniProt Q9Y5N1); assay: [3H]Nα-methylhistamine radioligand displacement assay, HEK-293 cell membranes; assay type: binding
T3 construct: expressed in transfected cells
T3 sequence (Q9Y5N1 whole entry): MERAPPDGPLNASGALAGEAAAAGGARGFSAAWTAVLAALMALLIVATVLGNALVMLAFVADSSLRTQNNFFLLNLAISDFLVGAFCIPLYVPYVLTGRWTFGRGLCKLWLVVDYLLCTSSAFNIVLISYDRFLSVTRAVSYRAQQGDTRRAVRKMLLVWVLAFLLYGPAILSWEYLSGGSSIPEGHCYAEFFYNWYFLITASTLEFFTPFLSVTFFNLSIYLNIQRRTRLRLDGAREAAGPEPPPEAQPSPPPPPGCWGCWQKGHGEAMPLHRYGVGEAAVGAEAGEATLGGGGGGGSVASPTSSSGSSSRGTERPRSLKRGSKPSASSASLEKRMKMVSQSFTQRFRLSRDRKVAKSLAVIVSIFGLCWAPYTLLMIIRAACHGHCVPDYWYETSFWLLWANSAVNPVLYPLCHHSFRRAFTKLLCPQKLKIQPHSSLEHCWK
Procedure: As described previously, the affinity for the human histamine H3R was tested utilizing radioligand displacement assays with [^3H]N^α-methylhistamine at membrane preparations from human embryonic kidney (HEK)-293 cells, stably expressing the receptor. […] The analysis of data was conducted by the software GraphPad Prism 7 (San Diego, CA, USA), using the “one-site competition” equation. Ki values were calculated from the 50 percent of inhibitory concentration (IC50) values according to the Cheng-Prusoff equation [44]

HEK-293 cell line = assay: Antiproliferative assay (MTS), HEK-293; assay type: cell-based, human; conditions: 72 h incubation
Procedure: as §1

[2] = 10 mg/kg i.p. co-administered with RAMH 10 mg/kg i.p.

Compound | concentration with significant decrease of HepG2 proliferation/viability (Hepatoma HepG2 cell line) | Ki (human H1 receptor) | fold lower affinity at hH1- and H4Rs than at H3R (human H1 receptor) | Ki (hH4R) | protective effect in MES-induced seizure (in words) (MES-induced seizure; 10 mg/kg i.p.) | MES-Induced Seizure (protection class) (MES-induced seizure; 10 mg/kg i.p.) | PTZ-Induced Seizure % Protection against GTCS (PTZ-induced seizure; 10 mg/kg i.p.) | PTZ-Induced Seizure Average Seizure Score (PTZ-induced seizure; 10 mg/kg i.p.) | protective effect in PTZ-induced seizure (in words) (PTZ-induced seizure; 10 mg/kg i.p.) | PTZ-Induced Seizure (protection class) (PTZ-induced seizure; 10 mg/kg i.p.) | STR-Induced Seizure % Protection against GTCS (STR-induced seizure; 10 mg/kg i.p.) | STR-Induced Seizure Average Seizure Score (STR-induced seizure; 10 mg/kg i.p.) | protective effect in STR-induced seizure (in words) (STR-induced seizure; 10 mg/kg i.p.) | STR-Induced Seizure (protection class) (STR-induced seizure; 10 mg/kg i.p.) | further results
N#CC(C#N)=NNc1cccc(Cl)c1 [CCCP, carbonyl cyanide 3-chlorophenylhydrazone, reference compound] | 10 µM |  |  |  |  |  |  |  |  |  |  |  |  |  | 
O=C(O)C(=O)O.c1ccc2cc(OCCCCCCN3CCCCCC3)ccc2c1 [Ligand 4, 1-(6-(naphthalen-2-yloxy)hexyl)azepane hydrogen oxalate] | 100 µM | 1.27 µM | at least 10 fold | > 10 µM | most promising protective effect | ++ (high protective effect (THLE duration <1, seizure score 0)) | 100% | 0.00 ± 0.00 ^& | full protective activities | ++ (high protective effect (THLE duration <1, seizure score 0)) | 28.57% | 4.57 ± 0.19 | failed to provide any appreciable protection; also recorded: failed to exhibit appreciable protection | − | MES-Induced Seizure Average THLE (MES-induced seizure; 2.5 mg/kg i.p.): 5.83 ± 1.01 s; MES-Induced Seizure Average THLE (s) (MES-induced seizure; 5 mg/kg i.p.): 2.50 ± 1.21 **^,# s; MES-Induced Seizure Average THLE (s) (MES-induced seizure; 10 mg/kg i.p.): 0.57 ± 0.21 **^,$ s; MES-Induced Seizure Average THLE (MES-induced seizure; [2]): 6.17 ± 0.59 s; MES-Induced Seizure Average THLE (s) (MES-induced seizure; 15 mg/kg i.p.): 3.67 ± 0.94 **^,# s; PTZ-Induced Seizure % Protection against GTCS (PTZ-induced seizure; 2.5 mg/kg i.p.): 100%; PTZ-Induced Seizure Average Seizure Score (PTZ-induced seizure; 2.5 mg/kg i.p.): 2.29 ± 0.44; PTZ-Induced Seizure % Protection against GTCS (PTZ-induced seizure; 5 mg/kg i.p.): 100%; PTZ-Induced Seizure Average Seizure Score (PTZ-induced seizure; 5 mg/kg i.p.): 0.71 ± 0.31 **^,#; PTZ-Induced Seizure % Protection against GTCS (PTZ-induced seizure; [2]): 100%; PTZ-Induced Seizure Average Seizure Score (PTZ-induced seizure; [2]): 0.29 ± 0.16; PTZ-Induced Seizure % Protection against GTCS (PTZ-induced seizure; 15 mg/kg i.p.): 100%; PTZ-Induced Seizure Average Seizure Score (PTZ-induced seizure; 15 mg/kg i.p.): 0.00 ± 0.00 ^&; main metabolic pathway [1]: double-hydroxylation at the 6-n-hexylazepane moiety; IC50 (CYP2D6): 0.67 µM; fold higher CYP2D6 IC50 compared with reference drug QD (CYP2D6): 67 fold
Fc1ccc(OCCCCCCN2CCCCCC2)cc1.O=C(O)C(=O)O [Ligand 13, 1-(6-(4-fluorophenoxy)hexyl)azepane hydrogen oxalate] |  | 1.34 µM | at least 10 fold | > 10 µM | without protection | − | 85.71% | 2.14 ± 0.47 | weak protection | + (moderate protective effect (tonic hind limb extension (THLE) duration in the range of 2–5 s, seizure score in the range of 2–4)) | 100% | 2.00 ± 0.35 | moderate protective effect | + (moderate protective effect (tonic hind limb extension (THLE) duration in the range of 2–5 s, seizure score in the range of 2–4)) | Ki (human histamine H3R; mean with 95% confidence interval, read-out: In Vitro Affinity Ki (hH3R) in nM [CI]): 137 nM; MES-Induced Seizure Average THLE (MES-induced seizure; 10 mg/kg i.p.): 6.43 ± 1.14 s; STR-Induced Seizure % Protection against GTCS (STR-induced seizure; 2.5 mg/kg i.p.): 14.29%; STR-Induced Seizure Average Seizure Score (STR-induced seizure; 2.5 mg/kg i.p.): 4.86 ± 0.13; STR-Induced Seizure % Protection against GTCS (STR-induced seizure; 5 mg/kg i.p.): 85.71%; STR-Induced Seizure Average Seizure Score (STR-induced seizure; 5 mg/kg i.p.): 3.00 ± 0.31; STR-Induced Seizure % Protection against GTCS (STR-induced seizure; [2]): 100%; STR-Induced Seizure Average Seizure Score (STR-induced seizure; [2]): 2.14 ± 0.35; STR-Induced Seizure % Protection against GTCS (STR-induced seizure; 15 mg/kg i.p.): 100%; STR-Induced Seizure Average Seizure Score (STR-induced seizure; 15 mg/kg i.p.): 2.17 ± 0.31
COc1cccc2c1C(=O)c1c(O)c3c(c(O)c1C2=O)C[C@@](O)(C(=O)CO)C[C@@H]3O[C@H]1C[C@H](N)[C@H](O)[C@H](C)O1 [DX, doxorubicin] |  |  |  |  |  |  |  |  |  |  |  |  |  |  | concentration with significant decrease of HEK-293 proliferation/viability (HEK-293 cell line): 1 µM
CC1CCCN(CCCCCCOc2ccc(C(=O)c3ccccc3)cc2)C1.O=C(O)C(=O)O (stereo not shown) [Ligand 6, (4-(6-(3-methylpiperidin-1-yl)hexyloxy)phenyl)(phenyl)methanone hydrogen oxalate] |  | 0.915 to 1.34 µM |  |  |  | + (moderate protective effect (tonic hind limb extension (THLE) duration in the range of 2–5 s, seizure score in the range of 2–4)) |  |  |  | − |  |  |  | − | Ki (human histamine H3R): 52.8 nM; IC50 (CYP2D6; human): 0.67 µM
